Test results published in the supplement of paper PMC11208160.

assay: recombinant UMI read abundance after kanamycin selection (control-corrected) (log10(CPM+1)); higher = more efficient recombination; extreme values may be limits of the assay; sequences stand for … in AGTGCAGAGAAAATCGGCCAGTTTTCTCTGCCTGCAGTCCGCATGCCGTGGGACCCCTTGGGTTCTAACCTGTTGCCTAGATTTATGCAGCGGACTGCCTTTCTCCCAAAGTGATAAACCGG…AGGTTGGTTTCACT; site = the 11-nt donor
Description: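 Pooled E. coli donor-specificity screen for the IS621 bridge recombinase. Each library member carries a reprogrammed 11-nt donor and a full-length LE bridge RNA expressed in cis from the natural promoter, with a paired donor-binding loop (8-nt LDG + 4-nt RDG) and a target-binding loop fixed to T5. It is co-electroporated with a T5 target plasmid; recombinase is induced with 0.07 mM IPTG and recombinants are selected on kanamycin. UMIs are counted as CPM, averaged over two biological replicates and corrected by the unselected control. Molecule = full bridge RNA written as DNA, built from the T5 scaffold: LDG = donor specificity nt 1-8, RDG = reverse complement of nt 8-11.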
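Further: IS621 bridge recombinase in Escherichia coli cells against a fixed T5 target plasmid.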

In order of falling “recombinant UMI read abundance (log10)” value:
1. ACAGTATCATGGACCGGTTTTCCCGGTAATCCGTATTTGGA (site ACAGTATCTTC)  2.88
2. ACATGCGCATGGACCGGTTTTCCCGGTAATCCGTATTTGCA (site ACATGCGCTTG)  2.86
3. ACAGTAACATGGACCGGTTTTCCCGGTAATCCGTATTTGCA (site ACAGTAACTTG)  2.83
4. ACCCGCTCATGGACCGGTTTTCCCGGTAATCCGTATTTGTC (site ACCCGCTCTGA)  2.76
5. ACAGTATCATGGACCGGTTTTCCCGGTAATCCGTATTTGGA (site ACAGTATCTTT)  2.61
6. ACCAGGTCATGGACCGGTTTTCCCGGTAATCCGTATTTGTA (site ACCAGGTCTTA)  2.54
7. ACAGTTTCATGGACCGGTTTTCCCGGTAATCCGTATTTGTA (site ACAGTTTCTTA)  2.49
8. ACAGTATCATGGACCGGTTTTCCCGGTAATCCGTATTTGGA (site ACAGTATCTTA)  2.36
9. ACAGTGGCATGGACCGGTTTTCCCGGTAATCCGTATTTGCT (site ACAGTGGCTAG)  2.32
10. ACCATATCATGGACCGGTTTTCCCGGTAATCCGTATTTGCA (site ACCATATCTTG)  2.3
11. ACCAGCTCATGGACCGGTTTTCCCGGTAATCCGTATTTGCT (site ACCAGCTCTAG)  2.25
12. ACAGGTGCATGGACCGGTTTTCCCGGTAATCCGTATTTGAT (site ACAGGTGCTAT)  2.2
13. ACAGGTGCATGGACCGGTTTTCCCGGTAATCCGTATTTGAT (site CCAGGTGCTAT)  2.2
14. ACAGTAACATGGACCGGTTTTCCCGGTAATCCGTATTTGGA (site ACAGTAACTTC)  2.19
15. ACCGAATCATGGACCGGTTTTCCCGGTAATCCGTATTTGCA (site ACCGAATCTTG)  2.16
16. ACATCTGCATGGACCGGTTTTCCCGGTAATCCGTATTTGGT (site ACATCTGCTAC)  2.1
17. ACCGCTGCATGGACCGGTTTTCCCGGTAATCCGTATTTGGC (site ACCGCTGCTGC)  2.08
18. ACATGAACATGGACCGGTTTTCCCGGTAATCCGTATTTGAG (site ACATGAACTCT)  2.07
19. ACAGTATCATGGACCGGTTTTCCCGGTAATCCGTATTTGGA (site ACAGTATCTTG)  2.02
20. ACCCGGGCATGGACCGGTTTTCCCGGTAATCCGTATTTGAC (site ACCCGGGCTGT)  2.02
21. ACCAACTCATGGACCGGTTTTCCCGGTAATCCGTATTTGCC (site ACCAACTCTGG)  1.81
22. ACAGGTGCATGGACCGGTTTTCCCGGTAATCCGTATTTGAT (site TCAGGTGCTAT)  1.78
23. ACCGACTCATGGACCGGTTTTCCCGGTAATCCGTATTTGCC (site ACCGACTCTGG)  1.78
24. ACATTGACATGGACCGGTTTTCCCGGTAATCCGTATTTGAA (site ACATTGACTTT)  1.76
25. ACATGTACATGGACCGGTTTTCCCGGTAATCCGTATTTGGT (site ACATGTACTAC)  1.73
26. ACCCCAACATGGACCGGTTTTCCCGGTAATCCGTATTTGTA (site ACCCCAACTTA)  1.68
27. ACAGTAACATGGACCGGTTTTCCCGGTAATCCGTATTTGCA (site ACAGTATCTTG)  1.65
28. ACATTCTCATGGACCGGTTTTCCCGGTAATCCGTATTTGCC (site ACATTCTCTGG)  1.63
29. ACATGAACATGGACCGGTTTTCCCGGTAATCCGTATTTGTC (site ACATGAACTGA)  1.57
30. ACCCGATCATGGACCGGTTTTCCCGGTAATCCGTATTTGAT (site ACCCGATCTAT)  1.53
31. ACATATCCATGGACCGGTTTTCCCGGTAATCCGTATTTGAC (site ACATATCCTGT)  1.43
32. ACAGTAACATGGACCGGTTTTCCCGGTAATCCGTATTTGCA (site ACAGTAGCTTG)  1.39
33. ACATCATCATGGACCGGTTTTCCCGGTAATCCGTATTTGCT (site ACATCATCTAG)  1.39
34. ACATCTGCATGGACCGGTTTTCCCGGTAATCCGTATTTGTG (site ACATCTGCTCA)  1.37
35. ACAGTTCCATGGACCGGTTTTCCCGGTAATCCGTATTTGAA (site ACAGTTCCTTT)  1.36
36. ACAGTTTCATGGACCGGTTTTCCCGGTAATCCGTATTTGTA (site ACAGTATCTTG)  1.19
37. ACATCATCATGGACCGGTTTTCCCGGTAATCCGTATTTGCT (site CGATCATCTAG)  1.05
38. ACCGCTACATGGACCGGTTTTCCCGGTAATCCGTATTTGCG (site ACCGCTACTCG)  1.01
39. ACCATATCATGGACCGGTTTTCCCGGTAATCCGTATTTGCA (site ACAGTATCTTG)  0.937
40. ACATATCCATGGACCGGTTTTCCCGGTAATCCGTATTTGAC (site ACACATCCTGT)  0.817
41. ACCCATCCATGGACCGGTTTTCCCGGTAATCCGTATTTGAC (site ACCCATCCTGT)  0.806
42. ACCGACGCATGGACCGGTTTTCCCGGTAATCCGTATTTGTT (site ACCGACGCTAA)  0.786
43. ACATTTACATGGACCGGTTTTCCCGGTAATCCGTATTTGTG (site ACATTTACTCA)  0.706
44. ACAGGTGCATGGACCGGTTTTCCCGGTAATCCGTATTTGAT (site GCAGGTGCTAT)  0.572
45. ACATCTGCATGGACCGGTTTTCCCGGTAATCCGTATTTGTG (site ACATCTTCTCA)  0.5
46. ACATAGACATGGACCGGTTTTCCCGGTAATCCGTATTTGGG (site ACATAGACTCC)  0.469
47. ACATCTGCATGGACCGGTTTTCCCGGTAATCCGTATTTGTG (site ACATCTACTCA)  0.401
48. ACATTTACATGGACCGGTTTTCCCGGTAATCCGTATTTGTG (site ACATGTACTCA)  0.287
49. ACATGAACATGGACCGGTTTTCCCGGTAATCCGTATTTGTC (site ACACGAACTGA)  0.197
50. ACCGATCCATGGACCGGTTTTCCCGGTAATCCGTATTTGCA (site ACCGATCCTTG)  0.164
51. ACATTTACATGGACCGGTTTTCCCGGTAATCCGTATTTGTG (site ACATCTACTCA)  0.162
52. ACCACGCCATGGACCGGTTTTCCCGGTAATCCGTATTTGTA (site CCCACGCCTTA)  0.143
53. ACCACGCCATGGACCGGTTTTCCCGGTAATCCGTATTTGTA (site ACCACGCCTTA)  0.0245
54. ACATCTGCATGGACCGGTTTTCCCGGTAATCCGTATTTGTG (site ACATCTCCTCA)  0.0207
55. ACATAGACATGGACCGGTTTTCCCGGTAATCCGTATTTGGG (site ACTTAGACTCC)  0.0189
56. ACATAGACATGGACCGGTTTTCCCGGTAATCCGTATTTGGG (site ACCTAGACTCC)  0.0175
57. ACCACGCCATGGACCGGTTTTCCCGGTAATCCGTATTTGTA (site TCCACGCCTTA)  0.0133
58. ACCCATCCATGGACCGGTTTTCCCGGTAATCCGTATTTGAC (site ACACATCCTGT)  0.0114
59. ACCACGCCATGGACCGGTTTTCCCGGTAATCCGTATTTGTA (site GCCACGCCTTA)  0.00875
60. ACATTTACATGGACCGGTTTTCCCGGTAATCCGTATTTGTG (site ACATATACTCA)  0.00866
61. ACATAGACATGGACCGGTTTTCCCGGTAATCCGTATTTGGG (site ACGTAGACTCC)  0.00831
62. ACCGAACCATGGACCGGTTTTCCCGGTAATCCGTATTTGGA (site ACCGAACCTTC)  0.00378
63. ACAGTAACATGGACCGGTTTTCCCGGTAATCCGTATTTGCA (site ACAGTACCTTG)  0
64. ACAGTAACATGGACCGGTTTTCCCGGTAATCCGTATTTGGA (site ACAGTATCTTG)  0
65. ACATATCCATGGACCGGTTTTCCCGGTAATCCGTATTTGAC (site ACAAATCCTGT)  0
66. ACATATCCATGGACCGGTTTTCCCGGTAATCCGTATTTGAC (site ACAGATCCTGT)  0
67. ACATGAACATGGACCGGTTTTCCCGGTAATCCGTATTTGTC (site ACAAGAACTGA)  0
68. ACATGAACATGGACCGGTTTTCCCGGTAATCCGTATTTGTC (site ACAGGAACTGA)  0
69. ACATGACCATGGACCGGTTTTCCCGGTAATCCGTATTTGCC (site ACATGACCTGG)  0
70. ACCCATCCATGGACCGGTTTTCCCGGTAATCCGTATTTGAC (site ACGCATCCTGT)  0
71. ACCCATCCATGGACCGGTTTTCCCGGTAATCCGTATTTGAC (site ACTCATCCTGT)  0
72. ACCGAATCATGGACCGGTTTTCCCGGTAATCCGTATTTGCA (site ACAGTATCTTG)  0
